Measured values reported in US8703750B2, “Mixtures and methods for the induction of resistance in plants” (priority 2004, dated 2014).
Read-outs that look alike come from different tables or passages of the source.

Tests used:
[1] = test system: cultivar Borlotto of Vigevano bean plants; assay type: in vivo, bean plant; design: key: 100 = healthy plant, 0 = completely necrotic/decoloured
Method: After 7 days in a conditioned environment, the intensity of the necrosis or leaf decolouring is evaluated with an evaluation scale from 100 (healthy plant) to 0 (plant completely infected with necrosis or decoloured).

[2] = test system: Plasmopara viticola; settings: in vivo
Method: After remaining 7 days in a conditioned environment, the plants were infected on the lower side with an aqueous suspension of Plasmorpara viticola spores (200,000 spores per cm^3).
(§1) The plants were kept in a humidity saturated environment, at 21° C., for the incubation period of the fungus and, at the end of this period (7 days), the fungicidal activity is evaluated according to an evaluation percentage scale from 100 (healthy plant) to 0 (completely infected plant).
E is the expected fungicidal activity, in the absence of synergetic effects, from a blend obtained by mixing g.x of the compound X with g.y of the compound Y;
x is the activity of compound X when used alone at a dose of g.x;
y is the activity of compound Y when used alone at a dose of g.y.
When the fungicidal activity found experimentally is greater than the value of E, said activity should be considered as being a synergetic effect.

[3] = test system: Peronospora tabacina; assay: Control of Peronospora Tabacina on tobacco in preventive leaf application (greenhouse test); assay type: in vivo
Method: After remaining 7 days in a conditioned environment, the plants were infected on the lower side with an aqueous suspension of Peronospora Tabacina spores (200,000 spores per cm^3).
as §1, with “After remaining 24 hours” for “The plants were kept”, “C., the plants were transferred to another conditioned environment” for “C.,”

[4] = test system: cultivar Merlot vines; assay: Undesired effects (necrosis or leaf decolouring) on vines in the Plasmopara viticola greenhouse test; settings: in vivo
Method: Leaves of cultivar Merlot vines, grown in vases, in a conditioned environment (20±1° C., 70% relative humidity), were treated by spraying both sides of the leaves with the blends in question dispersed in an aqueous solution containing 0.3% of tween 20.

[5] = test system: cultivar Burley tobacco plants; settings: in vivo
Method: Leaves of cultivar Burley tobacco plants, grown in vases, in a conditioned environment (20±1° C., 70% relative humidity), were treated by spraying both sides of the leaves with the blends in question dispersed in an aqueous solution containing 0.3% of tween 20.
Undesired effects refer to the appearance of necrosis or leaf decolouring.

[6] = 125 ppm of each component, 7 days after leaf spraying, bean plant

CC(N)CC(=O)O (stereo not drawn) [BABA, β-aminobutyric acid, reference compound]
Leaf decolouring [1, 6]: 15 | Leaf necrosis [1, 6]: 30

[Cu+2].[OH-].[OH-] [Cu hydroxide, cuprum hydroxyde]
Activity (y) [2]: 34

[Cl-].[Cu+2].[Cu+2].[OH-].[OH-].[OH-] [Cu oxychloride, cuprum oxychloride]
Activity (y) [2]: 18

O=S(=O)([O-])[O-].[Cu+2] [CuSO4, copper sulphate]
Activity (y) ([3]; in vivo): 45 | Activity (y) [2]: 48

O=C(O)c1ccccc1[O-].O=C(O)c1ccccc1[O-].[Cu+2] [Cu^2+ SA, copper (II) salt of salicylic acid]
Leaf decolouring ([1]; in vivo): 5 | Leaf necrosis ([1]; in vivo): 55

O=C(O)c1ccccc1[O-].O=C(O)c1ccccc1[O-].[Cu+2] [Cu^2+SA2, copper (II) salt of salicylic acid]
Leaf decolouring ([1]; in vivo): 5 | Leaf necrosis ([1]; in vivo): 42

O=c1ccc2ccccc2o1 [Cumarine]
Activity (y) [2]: 10

O=c1ccc2cc(O[C@@H]3O[C@H](CO)[C@@H](O)[C@H](O)[C@H]3O)c(O)cc2o1 [Esculine, esculin]
Activity (y) [2]: 10

O=C([O-])[C@H](O)[C@@H](O)[C@H](O)[C@H](O)CO.O=C([O-])[C@H](O)[C@@H](O)[C@H](O)[C@H](O)CO.[Fe+2] [Fe (II) gluconate]
Activity (y) [2]: 28

[Fe+2].c1ccc2c(c1)-c1nc-2nc2[n-]c(nc3nc(nc4[n-]c(n1)c1ccccc41)-c1ccccc1-3)c1ccccc21 [Fe (II) phthalocyanine, iron phthalocyanine]
Activity (y) [2]: 14

O=S(=O)([O-])[O-].[Fe+2] [FeSO4, iron sulphate]
Activity (y) ([3]; in vivo): 15 | Activity (y) [2]: 40

O=C(O)c1cc(Cl)nc(Cl)c1 [INA, 2,6-dichloroisonicotinic acid, reference compound]
Leaf decolouring [1, 6]: 10 | Leaf necrosis [1, 6]: 50

[C-]#N.[C-]#N.[C-]#N.[C-]#N.[C-]#N.[C-]#N.[C-]#N.[C-]#N.[C-]#N.[C-]#N.[C-]#N.[C-]#N.[C-]#N.[C-]#N.[C-]#N.[C-]#N.[C-]#N.[C-]#N.[Fe+2].[Fe+2].[Fe+2].[Fe+3].[Fe+3].[Fe+3].[Fe+3] [Prussian blue]
Activity (y) [2]: 13

O=C1NS(=O)(=O)c2ccccc21 [Saccharin, saccharin]
Activity (y) [2]: 30

[Cl-].[Cl-].[Cu+2].[Cu+2].[Cu+2].[Cu+2].[OH-].[OH-].[OH-].[OH-].[OH-].[OH-] [Tetracopper oxychloride]
Activity (y) [2]: 28

[O]=[Zn] [ZnO, zinc oxide]
Activity (y) ([3]; in vivo): 15 | Activity (y) [2]: 30

O=S(=O)([O-])[O-].[Zn+2] [ZnSO4, zinc sulphate]
Activity (y) ([3]; in vivo): 20 | Activity (y) [2]: 22

Fe(III) glutamate
Activity (y) [2]: 16

FeNH4SO4
Activity (y) [2]: 18

copper phthalocyanine [Cu (II) Phthalocyanine]
Activity (y) [2]: 10 | Undesired effects [4]: 0

silicic acid
Activity (y) [2]: 14

titanium dioxide [TiO2]
Activity (y) ([3]; Table 5, compound alone at dose g.y ppm Equivalent Metal: TiO2 24, FeSO4 28, ZnSO4 33, CuSO4 32, ZnO 33): 5 | Undesired effects [5]: 0 | Activity (y) [2]: 24
